Patent publication US9695155B2, “Herbicidal substituted pyrimidinyloxy benzene compounds” (E. I. DU PONT DE NEMOURS AND COMPANY, priority 2013, dated 2017)

Columns and labels:
[1] = system: barnyardgrass; experiment: Test A preemergence; assay type: in vivo, Echinochloa crus-galli
Method in brief: (§1)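 Greenhouse pot test, loam/sand soil. Formulation: non-phytotoxic solvent mix plus surfactant. Pre: directed spray onto soil after sowing. Post: plants at 1–2 leaf, 2–10 cm. Rated visually vs untreated controls at ~10 d, 0 (no effect) to 100 (complete control).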

[2] = system: kochia; experiment: Test A preemergence; assay type: in vivo, Kochia scoparia; conditions: 1000 g ai/ha, 0 to 100 scale, 0 no effect, 100 complete control, approx. 10 days
Text: (§2) Seeds of plant species selected from barnyardgrass (Echinochloa crus-galli), kochia (Kochia scoparia), ragweed (common ragweed, Ambrosia elatior), Italian ryegrass (Lolium multiflorum), large (Lg) crabgrass (Digitaria sanguinalis), giant foxtail (Setaria faberii), morningglory (Ipomoea spp.), pigweed (Amaranthus retroflexus), velvetleaf (Abutilon theophrasti), wheat (Triticum aestivum), and corn (Zea mays) were planted into a blend of loam soil and sand and treated preemergence with a directed soil spray using test chemicals formulated in a non-phytotoxic solvent mixture which included a surfactant.
(§3) At the same time, plants selected from these crop and weed species and also blackgrass (Alopecurus myosuroides), and galium (catchweed bedstraw, Galium aparine) were planted in pots containing the same blend of loam soil and sand and treated with postemergence applications of test chemicals formulated in the same manner. Plants ranged in height from 2 to 10 cm and were in the one- to two-leaf stage for the postemergence treatment. Treated plants and untreated controls were maintained in a greenhouse for approximately 10 days, after which time all treated plants were compared to untreated controls and visually evaluated for injury. Plant response ratings, summarized in Table A, are based on a 0 to 100 scale where 0 is no effect and 100 is complete control. A dash (-) response means no test result.

[3] = system: ragweed; experiment: Test A preemergence; assay type: in vivo, Ambrosia elatior; conditions: 1000 g ai/ha, 0 to 100 scale, 0 no effect, 100 complete control, approx. 10 days
Text: as §2, §3

[4] = system: Italian ryegrass; experiment: Test A preemergence; assay type: in vivo, Lolium multiflorum; conditions: 1000 g ai/ha, 0 to 100 scale, 0 no effect, 100 complete control, approx. 10 days
Text: as §2, §3

[5] = system: giant foxtail; experiment: Test A preemergence; assay type: in vivo, Setaria faberii
Method in brief: as §1

[6] = system: pigweed; experiment: Test A preemergence; assay type: in vivo, Amaranthus retroflexus
Method in brief: as §1

[7] = system: barnyardgrass; experiment: Test A postemergence; assay type: in vivo, Echinochloa crus-galli
Method in brief: as §1

[8] = system: kochia; experiment: Test A postemergence; assay type: in vivo, Kochia scoparia; conditions: 1000 g ai/ha, 0 to 100 scale, 0 no effect, 100 complete control
Text: as §2, §3

[9] = system: ragweed; experiment: Test A postemergence; assay type: in vivo, Ambrosia elatior; conditions: 1000 g ai/ha, 0 to 100 scale, 0 no effect, 100 complete control
Text: as §2, §3

[10] = system: Italian ryegrass; experiment: Test A postemergence; assay type: in vivo, Lolium multiflorum; conditions: 1000 g ai/ha, 0 to 100 scale, 0 no effect, 100 complete control
Text: as §2, §3

[11] = system: giant foxtail; experiment: Test A postemergence; assay type: in vivo, Setaria faberii
Method in brief: as §1

[12] = system: pigweed; experiment: Test A postemergence; assay type: in vivo, Amaranthus retroflexus
Method in brief: as §1

[13] = system: wheat; experiment: Test A postemergence; assay type: in vivo, Triticum aestivum
Method in brief: as §1

[14] = system: corn; experiment: Test A postemergence; assay type: in vivo, Zea mays
Method in brief: as §1

[15] = system: blackgrass; experiment: Test A postemergence; assay type: in vivo, Alopecurus myosuroides; conditions: 1000 g ai/ha, 0 to 100 scale, 0 no effect, 100 complete control
Text: as §2, §3

[16] = system: galium; experiment: Test A postemergence; assay type: in vivo, Galium aparine; conditions: 1000 g ai/ha, 0 to 100 scale, 0 no effect, 100 complete control
Text: as §2, §3

[17] = system: large (Lg) crabgrass; experiment: Test A preemergence; assay type: in vivo, Digitaria sanguinalis
Method in brief: as §1

[18] = system: morningglory; experiment: Test A preemergence; assay type: in vivo, Ipomoea spp.
Method in brief: as §1

[19] = system: velvetleaf; experiment: Test A preemergence; assay type: in vivo, Abutilon theophrasti
Method in brief: as §1

[20] = system: wheat; experiment: Test A preemergence; assay type: in vivo, Triticum aestivum
Method in brief: as §1

[21] = system: corn; experiment: Test A preemergence; assay type: in vivo, Zea mays
Method in brief: as §1

[22] = system: large (Lg) crabgrass; experiment: Test A postemergence; assay type: in vivo, Digitaria sanguinalis
Method in brief: as §1

[23] = system: morningglory; experiment: Test A postemergence; assay type: in vivo, Ipomoea spp.
Method in brief: as §1

[24] = system: velvetleaf; experiment: Test A postemergence; assay type: in vivo, Abutilon theophrasti
Method in brief: as §1

[25] = system: rice; experiment: Test B flooded paddy test; assay type: in vivo, Oryza sativa; conditions: Flood, 250 g ai/ha, 0 to 100 scale where 0 is no effect and 100 is complete control
Method in brief: (§4)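 Visual ratings on a 0 to 100 scale, where 100 means complete control, compared treated plants with controls after 13 to 15 days in a greenhouse. Treatment went into paddy water 3 cm deep over the soil, applied to plants at the 2-leaf stage.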

[26] = system: sedge, umbrella; experiment: Test B flooded paddy test; assay type: in vivo, Cyperus difformis; conditions: Flood, 250 g ai/ha, 0 to 100 scale where 0 is no effect and 100 is complete control
Method in brief: as §4

[27] = system: Heteranthera limosa; experiment: Test B flooded paddy test; assay type: in vivo; conditions: Flood, 250 g ai/ha, 0 to 100 scale where 0 is no effect and 100 is complete control
Method in brief: as §4

[28] = system: barnyardgrass; experiment: Test B flooded paddy test; assay type: in vivo, Echinochloa crus-galli; conditions: Flood, 250 g ai/ha, 0 to 100 scale where 0 is no effect and 100 is complete control
Method in brief: as §4

[29] = 1000 g ai/ha, 0 to 100 scale, 0 no effect, 100 complete control, approx. 10 days
[30] = 1000 g ai/ha, 0 to 100 scale, 0 no effect, 100 complete control
[31] = 500 g ai/ha, 0 to 100 scale where 0 is no effect and 100 is complete control
[32] = 125 g ai/ha, 0 to 100 scale, 0 no effect, 100 complete control

## CCN(CC)C(=O)c1cccc(Oc2ncc(Cl)cn2)c1-n1cc(C(F)(F)F)cn1 [Compound 263]
[1]; [29]
  Barnyardgrass plant response rating: 0
[2]
  Kochia plant response rating: 20
[3]
  Ragweed plant response rating: 0
[4]
  Ryegrass, Italian plant response rating: 0
[5]; [29]
  Foxtail, Giant plant response rating: 50
[6]; [29]
  Pigweed plant response rating: 10
[7]; [30]
  Plant response rating, Barnyardgrass: 0
[8]
  Plant response rating, Kochia: 10
[9]
  Plant response rating, Ragweed: 0
[10]
  Plant response rating, Ryegrass, Italian: 0
[11]; [30]
  Plant response rating, Foxtail, Giant: 0
[12]; [30]
  Plant response rating, Pigweed: 10
[13]; [30]
  Plant response rating, Wheat: 0
[14]; [30]
  Plant response rating, Corn: 0
[15]
  Plant response rating, Blackgrass: 20
[16]
  Plant response rating, Galium: 10

## Clc1cnc(Oc2cccc(-c3cnoc3)c2-n2cc(Br)cn2)nc1 [Compound 291]
[1]; 125 g ai/ha
  Barnyardgrass plant response rating (0 to 100 scale, 0 is no effect, 100 is complete control): 0
[1]; [31]
  Barnyardgrass plant response rating: 50
[17]; 125 g ai/ha
  Crabgrass, Large plant response rating (0 to 100 scale): 50
[17]; [31]
  Crabgrass, Large plant response rating: 90
[5]; 125 g ai/ha
  Foxtail, Giant plant response rating (0 to 100 scale): 20
[5]; [31]
  Foxtail, Giant plant response rating: 80
[18]; 125 g ai/ha
  Morningglory plant response rating (0 to 100 scale): 0
[18]; [31]
  Morningglory plant response rating: 0
[6]; 125 g ai/ha
  Pigweed plant response rating (0 to 100 scale): 60
[6]; [31]
  Pigweed plant response rating: 90
[19]; 125 g ai/ha
  Velvetleaf plant response rating (0 to 100 scale): 40
[19]; [31]
  Velvetleaf plant response rating: 60
[20]; 125 g ai/ha
  Wheat plant response rating (0 to 100 scale): 0
[20]; [31]
  Wheat plant response rating: 0
[21]; 125 g ai/ha
  Corn plant response rating (0 to 100 scale): 0
[21]; [31]
  Corn plant response rating: 0
[7]; [32]
  Plant response rating, Barnyardgrass: 0
[7]; [31]
  Plant response rating, Barnyardgrass: 40
[22]; [32]
  Plant response rating, Crabgrass, Large: 10
[22]; [31]
  Plant response rating, Crabgrass, Large: 60
[11]; [32]
  Plant response rating, Foxtail, Giant: 0
[11]; [31]
  Plant response rating, Foxtail, Giant: 50
[23]; [32]
  Plant response rating, Morningglory: 30
[23]; [31]
  Plant response rating, Morningglory: 40
[12]; [32]
  Plant response rating, Pigweed: 30
[12]; [31]
  Plant response rating, Pigweed: 70
[24]; [32]
  Plant response rating, Velvetleaf: 50
[24]; [31]
  Plant response rating, Velvetleaf: 60
[13]; [32]
  Plant response rating, Wheat: 0
[13]; [31]
  Plant response rating, Wheat: 0
[14]; [32]
  Plant response rating, Corn: 0
[14]; [31]
  Plant response rating, Corn: 10
[25]
  Plant response rating, Rice: 0
[26]
  Plant response rating, Sedge, Umbrella: 0
[27]
  Plant response rating, Ducksalad: 0
[28]
  Plant response rating, Barnyardgrass: 0

## Clc1cnc(Oc2ccccc2-n2ncc(Br)n2)nc1 [Compound 54, 2-[2-(4-bromo-2H-1,2,3-triazol-2-yl)phenoxy]-5-chloropyrimidine]
[1]; Echinochloa crus-galli, pre-emergence, 240 h, 1000 g ai/ha, 0 to 100 scale, 0 no effect, 100 complete control, read-out: Plant response rating, Barnyardgrass
  pest or weed control at 1000 g/ha: 0%
[17]; Digitaria sanguinalis, pre-emergence, 240 h, 1000 g ai/ha, 0 to 100 scale, 0 no effect, 100 complete control, read-out: Plant response rating, Crabgrass, Large
  pest or weed control at 1000 g/ha: 100%
[5]; Setaria faberi, pre-emergence, 240 h, 1000 g ai/ha, 0 to 100 scale, 0 no effect, 100 complete control, approx. 10 days, read-out: Foxtail, Giant plant response rating
  pest or weed control at 1000 g/ha: 100%
[18]; Ipomoea, pre-emergence, 240 h, 1000 g ai/ha, 0 to 100 scale, 0 no effect, 100 complete control, approx. 10 days, read-out: Morningglory plant response rating
  pest or weed control at 1000 g/ha: 70%
[6]; Amaranthus retroflexus, pre-emergence, 240 h, 1000 g ai/ha, 0 to 100 scale, 0 no effect, 100 complete control, approx. 10 days, read-out: Pigweed plant response rating
  pest or weed control at 1000 g/ha: 100%
[19]; Abutilon theophrasti, pre-emergence, 240 h, 1000 g ai/ha, 0 to 100 scale, 0 no effect, 100 complete control, approx. 10 days, read-out: Velvetleaf plant response rating
  pest or weed control at 1000 g/ha: 100%
[20]; Triticum aestivum, pre-emergence, 240 h, 1000 g ai/ha, 0 to 100 scale, 0 no effect, 100 complete control, approx. 10 days, read-out: Wheat plant response rating
  plant injury at 1000 g/ha: 0%
[21]; Zea mays, pre-emergence, 240 h, 1000 g ai/ha, 0 to 100 scale, 0 no effect, 100 complete control
  Corn plant response rating (crop injury, 0 = no effect, 100 = complete kill) at 1000 g/ha: 20%
[7]; Echinochloa crus-galli, post-emergence, 240 h, 1000 g ai/ha, 0 to 100 scale, 0 no effect, 100 complete control, read-out: Plant response rating Barnyardgrass
  pest or weed control at 1000 g/ha: 30%
[22]; Digitaria sanguinalis, post-emergence, 240 h, 1000 g ai/ha, 0 to 100 scale, 0 no effect, 100 complete control, read-out: Plant response rating Crabgrass, Large
  pest or weed control at 1000 g/ha: 100%
[11]; Setaria faberi, post-emergence, 240 h, 1000 g ai/ha, 0 to 100 scale, 0 no effect, 100 complete control, read-out: Plant response rating Foxtail, Giant
  pest or weed control at 1000 g/ha: 70%
[23]; Ipomoea, post-emergence, 240 h, 1000 g ai/ha, 0 to 100 scale, 0 no effect, 100 complete control, read-out: Plant response rating Morningglory
  pest or weed control at 1000 g/ha: 100%
[12]; Amaranthus retroflexus, post-emergence, 240 h, 1000 g ai/ha, 0 to 100 scale, 0 no effect, 100 complete control, read-out: Plant response rating Pigweed
  pest or weed control at 1000 g/ha: 100%
[24]; Abutilon theophrasti, post-emergence, 240 h, 1000 g ai/ha, 0 to 100 scale, 0 no effect, 100 complete control, read-out: Plant response rating Velvetleaf
  pest or weed control at 1000 g/ha: 80%
[13]; Triticum aestivum, post-emergence, 240 h, 1000 g ai/ha, 0 to 100 scale, 0 no effect, 100 complete control, read-out: Plant response rating Wheat
  plant injury at 1000 g/ha: 0%
[14]; Zea mays, post-emergence, 240 h, 1000 g ai/ha, 0 to 100 scale, 0 no effect, 100 complete control, read-out: Plant response rating Corn
  plant injury at 1000 g/ha: 50%
[25]; Oryza sativa, read-out: Plant response rating, Rice
  plant injury at 250 g/ha: 0%
[26]; Cyperus difformis, read-out: Plant response rating, Sedge, Umbrella
  pest or weed control at 250 g/ha: 0%
[27]; Heteranthera limosa, read-out: Plant response rating, Ducksalad
  pest or weed control at 250 g/ha: 0%
[28]; Echinochloa crus-galli, read-out: Plant response rating, Barnyardgrass
  pest or weed control at 250 g/ha: 0%
